The source of these data is ChEMBL document CHEMBL3526155, “Endoxifen, the active metabolite of tamoxifen, is a substrate of the efflux transporter P-glycoprotein (multidrug resistance 1)” (Drug Metab Dispos, 2011).

The structures appear in SMILES notation.

Series [1] is described as follows: Apparent permeability from basolateral to apical side in pig LLC-PK cells at 5 uM after 1 to 4 hrs by LC-MS/MS analysis. The class given is ADME, cell-based, Sus scrofa. The note with it: LLC-PK1.
Series [2] in a line: Efflux ratio of apparent permeability from basolateral to apical to apical to basolateral side in pig LLC-PK cells at 5 uM after 1 to 4 hrs by LC-MS/MS analysis. To be noted: LLC-PK1. The class given is ADME, cell-based, Sus scrofa.
A short description of series [3]: Apparent permeability from apical to basolateral side in pig LLC-PK cells at 5 uM after 1 to 4 hrs by LC-MS/MS analysis. The class given is ADME, cell-based, Sus scrofa. The note with it: LLC-PK1.
In series [4] the target is T1, MDR1 (ABCB1) (Homo sapiens, UniProt P08183). In words: Activity of human MDR1 expressed in pig LLC-PK cells assessed as apparent permeability from apical to basolateral side at 5 uM after 1 to 4 hrs by LC-MS/MS analysis. The format is ADME, cell-based. The note with it: LLC-PK1.
T1 sequence (P08183 whole entry): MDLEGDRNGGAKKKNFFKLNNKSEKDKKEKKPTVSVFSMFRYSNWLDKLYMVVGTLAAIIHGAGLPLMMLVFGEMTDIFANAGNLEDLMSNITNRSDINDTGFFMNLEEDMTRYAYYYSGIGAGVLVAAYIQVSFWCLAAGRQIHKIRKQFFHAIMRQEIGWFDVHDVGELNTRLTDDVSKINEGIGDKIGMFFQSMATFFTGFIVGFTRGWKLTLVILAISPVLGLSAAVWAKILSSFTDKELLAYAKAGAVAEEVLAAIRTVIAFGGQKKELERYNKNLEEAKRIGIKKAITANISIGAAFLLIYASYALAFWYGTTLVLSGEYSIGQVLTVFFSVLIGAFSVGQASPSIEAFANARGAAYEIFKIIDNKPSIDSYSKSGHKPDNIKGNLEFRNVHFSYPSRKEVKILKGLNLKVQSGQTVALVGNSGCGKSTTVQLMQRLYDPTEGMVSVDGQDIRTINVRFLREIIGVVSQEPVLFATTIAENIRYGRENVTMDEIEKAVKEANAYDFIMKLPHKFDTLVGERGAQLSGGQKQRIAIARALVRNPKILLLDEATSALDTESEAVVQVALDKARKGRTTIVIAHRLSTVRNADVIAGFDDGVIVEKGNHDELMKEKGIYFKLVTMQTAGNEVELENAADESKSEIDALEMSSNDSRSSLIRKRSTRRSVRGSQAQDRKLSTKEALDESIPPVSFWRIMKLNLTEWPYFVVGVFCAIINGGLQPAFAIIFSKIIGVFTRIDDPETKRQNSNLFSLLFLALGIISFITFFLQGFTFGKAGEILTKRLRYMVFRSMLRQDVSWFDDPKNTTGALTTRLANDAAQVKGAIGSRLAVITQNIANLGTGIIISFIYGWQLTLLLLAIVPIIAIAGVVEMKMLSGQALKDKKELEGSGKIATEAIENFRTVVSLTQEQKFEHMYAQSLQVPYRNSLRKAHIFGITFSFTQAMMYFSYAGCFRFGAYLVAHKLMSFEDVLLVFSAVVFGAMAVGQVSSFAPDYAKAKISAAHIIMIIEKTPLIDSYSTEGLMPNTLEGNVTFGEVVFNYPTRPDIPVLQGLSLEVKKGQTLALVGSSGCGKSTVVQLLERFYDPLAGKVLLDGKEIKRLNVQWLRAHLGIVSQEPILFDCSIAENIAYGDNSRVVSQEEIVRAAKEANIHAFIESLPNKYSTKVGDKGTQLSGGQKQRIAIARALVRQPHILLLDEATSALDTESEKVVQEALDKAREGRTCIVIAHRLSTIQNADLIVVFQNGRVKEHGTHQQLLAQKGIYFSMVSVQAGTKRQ
The target of series [5] is T1, MDR1 (ABCB1). Nature of the series: Activity of human MDR1 expressed in pig LLC-PK cells assessed as apparent permeability from basolateral to apical side at 5 uM after 1 to 4 hrs by LC-MS/MS analysis. The format is ADME, cell-based. The note with it: LLC-PK1.
The target of series [6] is T1, MDR1 (ABCB1). In words: Activity of human MDR1 expressed in pig LLC-PK cells assessed as efflux ratio of apparent permeability from basolateral to apical to apical to basolateral side at 5 uM after 1 to 4 hrs by LC-MS/MS analysis. The note with it: LLC-PK1. The class given is ADME, cell-based.
In series [7] the test system is Plasma. In words: Drug uptake in wild-type CF-1 mouse plasma at 5 mg/kg, po after 0.5 to 4 hrs by LC-MS/MS analysis. The format is ADME, organism-based. More on the design: dose 5 mg/kg, route oral. To be noted: in vivo.
Series [8] deals with Plasma. In words: Drug uptake in MDR1A-deficient CF-1 mouse plasma at 5 mg/kg, po after 0.5 to 4 hrs by LC-MS/MS analysis. The format is ADME, organism-based. Also noted: dose 5 mg/kg, route oral. To be noted: in vivo.
The subject of series [9] is Liver. Nature of the series: Drug uptake in wild-type CF-1 mouse liver at 5 mg/kg, po after 0.5 to 4 hrs by LC-MS/MS analysis. The class given is ADME, organism-based. Also noted: dose 5 mg/kg, route oral. To be noted: in vivo.
In series [10] the test system is Liver. Nature of the series: Drug uptake in MDR1A-deficient CF-1 mouse liver at 5 mg/kg, po after 0.5 to 4 hrs by LC-MS/MS analysis. The class given is ADME, organism-based. More on the design: dose 5 mg/kg, route oral. To be noted: in vivo.
For series [11], the system named is Brain. In words: Drug uptake in wild-type CF-1 mouse brain at 5 mg/kg, po after 0.5 to 4 hrs by LC-MS/MS analysis. The note with it: in vivo. Also noted: dose 5 mg/kg, route oral. The class given is ADME, organism-based.
In series [12] the test system is Brain. In words: Drug uptake in MDR1A-deficient CF-1 mouse brain at 5 mg/kg, po after 0.5 to 4 hrs by LC-MS/MS analysis. The class given is ADME, organism-based. Also noted: dose 5 mg/kg, route oral. To be noted: in vivo.
The nature of series [13]: Ratio of drug level in brain to plasma in MDR1A-deficient CF-1 mouse at 5 mg/kg, po after 0.5 to 4 hrs by LC-MS/MS analysis. The class given is ADME, organism-based. Also noted: dose 5 mg/kg, route oral. To be noted: read-out: BPR.
Series [14] concerns Brain. In words: Drug uptake in MDR1A-deficient CF-1 mouse brain at 5 mg/kg, po after 0.5 to 4 hrs by LC-MS/MS analysis relative to wild-type. Also noted: dose 5 mg/kg, route oral. The format is ADME, organism-based. To be noted: in vivo.

Turning to `CC/C(=C(\c1ccc(O)cc1)c1ccc(OCCNC)cc1)c1ccccc1` [ENDOXIFEN], the figures for the apparent permeability from basolateral to apical (Papp B→A) at 5 µM (in series [1]; at MDR1 (ABCB1) [5]) were 21.5 nm/s and 27.7 nm/s, respectively. In addition, the efflux ratio – broadly, the permeability from basolateral to apical divided by that in the opposite direction, in the common usage – at 5 µM in [2] stood at 1.07; at MDR1 (ABCB1) [6], 2.67. In addition, the Papp A→B – broadly, how fast a substance crosses the layer from the apical side – at 5 µM in [3] was 18.3 nm/s; at MDR1 (ABCB1) [4], 11 nm/s. Besides, the Drug uptake result in the series with Plasma [7], in the series on Plasma [8], with Liver [9], in the series on Liver [10], in the series on Brain [11] and in the series with Brain [12] was “Active” each time. In addition, the Kp in series [13] is greater than 10. The Ratio in the series on Brain [14] turned out to be 20.
On to `C[C@H]1O[C@@H](O[C@H]2[C@@H](O)C[C@H](O[C@H]3[C@@H](O)C[C@H](O[C@H]4CC[C@@]5(C)[C@H](CC[C@@H]6[C@@H]5C[C@@H](O)[C@]5(C)[C@@H](C7=CC(=O)OC7)CC[C@]65O)C4)O[C@@H]3C)O[C@@H]2C)C[C@H](O)[C@@H]1O` [DIGOXIN], for which the Papp B→A – broadly, how fast a substance crosses the layer from the basolateral side – at 5 µM at MDR1 (ABCB1) [5] turned out to be 67.4 nm/s.
